In PubChem BioAssay AID330 (DTP/NCI, 2004):
“And” between values parts separate entries of the source, which are not always exact repeats. Equal values may be shown once. Toxic doses and inconclusive results are not listed. The calls were made as follows: active = survival T/C of 150% or more; inactive = T/C below 125% in these data.

System: P388 leukemia ip, CD2F1 mice, survival T/C
Experiment: NCI In Vivo Anticancer Drug Screen. Data for tumor model P388 Leukemia (intraperitoneal) in CD2F1 (CDF1) mice
Details: endpoint: median survival time, higher = longer survival
Summary of the method: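 Mice carrying the transplanted tumor received test compound or vehicle. Survival was recorded in each group, and the value is the treated-group measurement divided by that of the vehicle-treated control group.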

[1] = dose: 100.0 mg/kg/injection, schedule: Q01DX009 (ip), vehicle: saline with Tween-80
[2] = dose: 200.0 mg/kg/injection, schedule: Q01DX009 (ip), vehicle: saline with Tween-80
[3] = dose: 60.0 mg/kg/injection, schedule: Q01DX005 (ip), vehicle: saline with Tween-80
[4] = dose: 120.0 mg/kg/injection, schedule: Q01DX005 (ip), vehicle: saline with Tween-80
[5] = dose: 240.0 mg/kg/injection, schedule: Q01DX005 (ip), vehicle: saline with Tween-80
[6] = dose: 50.0 mg/kg/injection, schedule: Q01DX005 (ip), vehicle: saline
[7] = dose: 50.0 mg/kg/injection, schedule: Q01DX005 (ip), vehicle: Klucel (hydroxypropylcellulose) (HPC)
[8] = dose: 100.0 mg/kg/injection, schedule: Q01DX005 (ip), vehicle: Klucel (hydroxypropylcellulose) (HPC)
[9] = dose: 200.0 mg/kg/injection, schedule: Q01DX005 (ip), vehicle: Klucel (hydroxypropylcellulose) (HPC)
[10] = dose: 50.0 mg/kg/injection, schedule: Q01DX009 (ip), vehicle: saline with Tween-80

Measured: T/C

CN(c1ccccc1)S(=O)(=O)c1ccccc1
inactive: [1] 95 % of control | [2] 95 % of control | dose: 200.0 mg/kg/injection, schedule: Q04DX003 (ip), vehicle: saline with Tween-80 100 % of control | dose: 400.0 mg/kg/injection, schedule: Q01DX009 (ip), vehicle: saline with Tween-80 100 % of control | dose: 400.0 mg/kg/injection, schedule: Q04DX003 (ip), vehicle: saline with Tween-80 87 % of control

CCNc1ncnc2c1cnn2C
inactive: dose: 25.0 mg/kg/injection, schedule: Q01DX009 (ip), vehicle: saline sonified 109 % of control | dose: 50.0 mg/kg/injection, schedule: Q01DX009 (ip), vehicle: saline sonified 113 % of control | dose: 50.0 mg/kg/injection, schedule: Q04DX003 (ip), vehicle: saline sonified 112 % of control | dose: 100.0 mg/kg/injection, schedule: Q04DX003 (ip), vehicle: saline sonified 104 % of control | dose: 200.0 mg/kg/injection, schedule: Q04DX003 (ip), vehicle: saline sonified 116 % of control

CCCn1c(C)nc2cc(C(F)(F)F)cc([N+](=O)[O-])c21
inactive: dose: 15.0 mg/kg/injection, schedule: Q01DX005 (ip), vehicle: saline with Tween-80 94 % of control | dose: 30.0 mg/kg/injection, schedule: Q01DX005 (ip), vehicle: saline with Tween-80 99 % of control | [3] 101 % of control and 97 % of control | [4] 98 % of control | [5] 103 % of control

CCCCCCCCCCCCNC(=O)C[n+]1cccc(C(=O)Nc2ccccc2)c1
inactive: dose: 3.0 mg/kg/injection, schedule: Q01DX009 (ip), vehicle: saline with Tween-80 100 % of control | dose: 6.0 mg/kg/injection, schedule: Q01DX009 (ip), vehicle: saline with Tween-80 104 % of control | dose: 12.0 mg/kg/injection, schedule: Q01DX009 (ip), vehicle: saline with Tween-80 95 % of control

Oc1cc(O)c(-c2c(O)cc(O)cc2O)c(O)c1 (tested in a mixture with another compound)
inactive: dose: 1.56 mg/kg/injection, schedule: Q01DX005 (ip), vehicle: saline 97 % of control | dose: 3.12 mg/kg/injection, schedule: Q01DX005 (ip), vehicle: saline 106 % of control | dose: 6.25 mg/kg/injection, schedule: Q01DX005 (ip), vehicle: saline 111 % of control | dose: 12.5 mg/kg/injection, schedule: Q01DX005 (ip), vehicle: saline 101 % of control | dose: 25.0 mg/kg/injection, schedule: Q01DX005 (ip), vehicle: saline 96 % of control | [6] 108 % of control

COCCn1c(N)c(C(=S)Nc2ccccc2)c(=O)[nH]c1=O
inactive: dose: 50.0 mg/kg/injection, schedule: Q01DX009 (ip), vehicle: saline 101 % of control | dose: 100.0 mg/kg/injection, schedule: Q01DX009 (ip), vehicle: saline 104 % of control | dose: 200.0 mg/kg/injection, schedule: Q01DX009 (ip), vehicle: saline 105 % of control

CNC(=O)c1n[nH]c(=S)[nH]c1=O
inactive: [7] 111 % of control | [6] 100 % of control | [8] 104 % of control | dose: 100.0 mg/kg/injection, schedule: Q01DX005 (ip), vehicle: saline 101 % of control | [9] 101 % of control | dose: 200.0 mg/kg/injection, schedule: Q01DX005 (ip), vehicle: saline 101 % of control

CCCCCCC(C)NCC(O)COc1cccc(C)c1 (centres undefined)
inactive: dose: 3.12 mg/kg/injection, schedule: Q01DX009 (ip), vehicle: Klucel (hydroxypropylcellulose) (HPC) 111 % of control | dose: 6.25 mg/kg/injection, schedule: Q01DX009 (ip), vehicle: Klucel (hydroxypropylcellulose) (HPC) 107 % of control | dose: 12.5 mg/kg/injection, schedule: Q01DX009 (ip), vehicle: Klucel (hydroxypropylcellulose) (HPC) 111 % of control

CCCCCCCCCCCCCCCCSC1=CC(=O)C(OC)=C(OC)C1=O
inactive: dose: 2.0 mg/kg/injection, schedule: Q01DX009 (ip), vehicle: Klucel (hydroxypropylcellulose) (HPC) 97 % of control | dose: 8.0 mg/kg/injection, schedule: Q01DX009 (ip), vehicle: Klucel (hydroxypropylcellulose) (HPC) 98 % of control | dose: 16.0 mg/kg/injection, schedule: Q01DX009 (ip), vehicle: Klucel (hydroxypropylcellulose) (HPC) 100 % of control | dose: 32.0 mg/kg/injection, schedule: Q01DX009 (ip), vehicle: Klucel (hydroxypropylcellulose) (HPC) 105 % of control

C=C[C@@](C)(O)CC/C=C(/C)CCC=C(C)C
inactive: dose: 25.0 mg/kg/injection, schedule: Q01DX009 (ip), vehicle: saline with Tween-80 110 % of control | [10] 110 % of control | [1] 110 % of control | dose: 100.0 mg/kg/injection, schedule: Q04DX003 (ip), vehicle: saline 109 % of control | dose: 200.0 mg/kg/injection, schedule: Q04DX003 (ip), vehicle: saline 100 % of control | dose: 400.0 mg/kg/injection, schedule: Q04DX003 (ip), vehicle: saline 113 % of control

CCNC(=O)OCc1c(COC(=O)NCC)c(-c2ccc(F)cc2)n2c1CCC2
inactive: dose: 3.13 mg/kg/injection, schedule: Q01DX009 (ip), vehicle: distilled water + Tween-80 123 % of control

O=C(NC(Cc1ccc(I)cc1)C(=O)O)c1cccc(Cl)c1 (centres undefined)
inactive: [7] 99 % of control | [8] 108 % of control | [9] 108 % of control

O=S(=O)(CCS(=O)(=O)c1ccccc1)c1ccccc1
inactive: [10] 92 % of control | [1] 92 % of control | [2] 89 % of control

COc1cccc(C2c3cc4c(cc3OC(C)(N3CCCC3)C2C)OCO4)c1OC (centres undefined)
inactive: dose: 60.0 mg/kg/injection, schedule: Q01DX005 (ip), vehicle: Klucel (hydroxypropylcellulose) (HPC) 99 % of control | dose: 120.0 mg/kg/injection, schedule: Q01DX005 (ip), vehicle: Klucel (hydroxypropylcellulose) (HPC) 88 % of control

Cc1ccc(OP(=O)(Oc2ccc(C)cc2)Oc2ccc(C)cc2)cc1.Cc1ccc(OP(=O)(Oc2ccc(C)cc2)Oc2ccc(C)cc2)cc1.[Cl][Cu][Cl]
inactive: dose: 12.5 mg/kg/injection, schedule: Q04DX003 (ip), vehicle: Klucel (hydroxypropylcellulose) (HPC) 99 % of control | dose: 25.0 mg/kg/injection, schedule: Q04DX003 (ip), vehicle: Klucel (hydroxypropylcellulose) (HPC) 96 % of control | dose: 50.0 mg/kg/injection, schedule: Q04DX003 (ip), vehicle: Klucel (hydroxypropylcellulose) (HPC) 99 % of control

CCOC(=O)Nc1cc2ncc(-c3ccccc3)nc2c(N)n1
inactive: dose: 50.0 mg/kg/injection, schedule: Q01DX001 (ip), vehicle: saline with Tween-80 97 % of control | dose: 100.0 mg/kg/injection, schedule: Q01DX001 (ip), vehicle: saline with Tween-80 93 % of control | dose: 200.0 mg/kg/injection, schedule: Q01DX001 (ip), vehicle: saline with Tween-80 90 % of control

CCCCCCCCCCCCCCCCCC[n+]1cccc(C2CCCN2C)c1 (centres undefined) (tested in a mixture with another compound)
inactive: dose: 25.0 mg/kg/injection, schedule: Q01DX009 (ip), vehicle: Klucel (hydroxypropylcellulose) (HPC) 104 % of control

COC(=O)/C(=C/c1ccc(/C=C(/C(=O)O)c2ccc(OC)cc2)o1)c1ccccc1
inactive: [3] 97 % of control | [4] 100 % of control | [5] 90 % of control

C/C(=C\COc1cc(O)c2c(c1)C(=O)c1cc(C)cc(O)c1C2=O)CCC1OC1(C)C (centres undefined)
inactive: dose: 2.5 mg/kg/injection, schedule: Q01DX005 (ip), vehicle: Klucel (hydroxypropylcellulose) (HPC) 98 % of control | dose: 5.0 mg/kg/injection, schedule: Q01DX005 (ip), vehicle: Klucel (hydroxypropylcellulose) (HPC) 93 % of control | dose: 10.0 mg/kg/injection, schedule: Q01DX005 (ip), vehicle: Klucel (hydroxypropylcellulose) (HPC) 90 % of control | dose: 20.0 mg/kg/injection, schedule: Q01DX005 (ip), vehicle: Klucel (hydroxypropylcellulose) (HPC) 88 % of control
